According to patent US20240287046A1, “COMPOUNDS AND RADIOLIGANDS FOR TARGETING NEUROTENSIN RECEPTOR AND USES THEREOF” (Full-Life Technologies HK Limited, priority 2022, published 2024):
Each block holds one compound with its values, some of them ahead of it.

Test system: ASPC-1 tumor-bearing mice
Experiment: Biodistribution of radionuclide labeled complexes in ASPC-1 tumor-bearing mice
Format: in vivo, BALB/c nude mice
Settings: for ratio of tumor AUC verse normal organ AUC: compared to ^177Lu—C2
Description: The BALB/c nude mice (Charles River, Beijing) were utilized to establish the xenografted model for biodistribution study. All animal care and experimental procedure were performed by following the animal protocols approved by the ethics committee of China Institute of Radiation Protection.
Briefly, each mouse was inoculated with approximately 4×10^6 ASPC-1 cells (human pancreatic cancer cell line) or HT-29 cells (human colorectal adenocarcinoma cell line) expressing human NTSR-1 by subcutaneous injection at rear flank. After inoculation, the xenografted tumors were allowed to grow for ˜2-4 weeks till the tumor weight reached to about 0.05 to 0.50 g (0.20 g in average).
Biodistribution studies were performed by administrating the radionuclide labeled test compound at a dose of ˜30-50 μCi (100 μL in 0.9% NaCl, ˜1.11-1.85 MBq, with specific activity 30-250 μCi/nmol) to each animal through tail vein injection.
At different time points after the administration, the mice treated with each compound were euthanized. The tissues and organs of the animals in each group were collected, excised, weighed, and analyzed in a PerkinElmer 2480 WIZARD2γ counter, and the percent injected dose (% ID) and % ID/g of each organ or tissue were calculated.

tumor AUC over 72 hours compared to ^177Lu—C2: significantly higher tumor AUC
% ID/g (4 h) Blood (Blood, 4 h): 2.08 ± 0.14 % ID/g
% ID/g (24 h) Blood (Blood): 0.06 ± 0.02 % ID/g
% ID/g (72 h) Blood (Blood): 0.04 ± 0.01 % ID/g
% ID/g (4 h) Femur (Femur, 4 h): 0.72 ± 0.05 % ID/g
% ID/g (24 h) Femur (Femur): 0.19 ± 0.09 % ID/g
% ID/g (72 h) Femur (Femur): 0.15 ± 0.06 % ID/g
% ID/g (4 h) Heart (Heart, 4 h): 0.68 ± 0.5 % ID/g
% ID/g (24 h) Heart (Heart): 0.24 ± 0.1 % ID/g
% ID/g (72 h) Heart (Heart): 0.18 ± 0.03 % ID/g
% ID/g (4 h) Intestine (Intestine, 4 h): 0.98 ± 0.2 % ID/g
% ID/g (24 h) Intestine (Intestine): 0.37 ± 0.07 % ID/g
% ID/g (72 h) Intestine (Intestine): 0.51 ± 0.1 % ID/g
% ID/g (4 h) Kidney (Kidney, 4 h): 3.66 ± 2.51 % ID/g
% ID/g (24 h) Kidney (Kidney): 3.16 ± 1.81 % ID/g
% ID/g (72 h) Kidney (Kidney): 1.3 ± 0.61 % ID/g
% ID/g (4 h) Liver (Liver, 4 h): 1.81 ± 0.43 % ID/g
% ID/g (24 h) Liver (Liver): 0.97 ± 0.45 % ID/g
% ID/g (72 h) Liver (Liver): 1.06 ± 0.46 % ID/g
% ID/g (4 h) Lung (Lung, 4 h): 0.64 ± 0.1 % ID/g
% ID/g (24 h) Lung (Lung): 0.31 ± 10.1 % ID/g
% ID/g (72 h) Lung (Lung): 0.33 ± 0.28 % ID/g
% ID/g (4 h) Muscle (Muscle, 4 h): 0.47 ± 0.25 % ID/g
% ID/g (24 h) Muscle (Muscle): 0.13 ± 0.05 % ID/g
% ID/g (72 h) Muscle (Muscle): 0.06 ± 0.01 % ID/g
% ID/g (4 h) Pancreas (Pancreas, 4 h): 0.41 ± 0.28 % ID/g
% ID/g (24 h) Pancreas (Pancreas): 0.18 ± 0.09 % ID/g
% ID/g (72 h) Pancreas (Pancreas): 0.07 ± 0.04 % ID/g
% ID/g (4 h) Spleen (Spleen, 4 h): 0.42 ± 0.16 % ID/g
% ID/g (24 h) Spleen (Spleen): 0.53 ± 0.25 % ID/g
% ID/g (72 h) Spleen (Spleen): 0.24 ± 0.08 % ID/g
% ID/g (4 h) Stomach (Stomach, 4 h): 0.57 ± 0.16 % ID/g
% ID/g (24 h) Stomach (Stomach): 0.28 ± 0.17 % ID/g
% ID/g (72 h) Stomach (Stomach): 0.1 ± 0.02 % ID/g
% ID/g (4 h) Tumor (Tumor, 4 h): 6.93 ± 0.71 % ID/g
% ID/g (24 h) Tumor (Tumor): 22.56 ± 1.81 % ID/g
% ID/g (72 h) Tumor (Tumor): 7.23 ± 4.46 % ID/g
ratio of tumor AUC verse normal organ AUC: significantly improved
SMILES: COc1cccc(OC)c1-c1cc(C(=O)NC2(C(=O)O)C3CC4CC(C3)CC2C4)nn1-c1ccc(N(C)CCCN(C)CCCN(C)C(=O)CN2CCN(CC(=O)[O-])CCN(CC(=O)[O-])CCN(CC(=O)[O-])CC2)cc1C(C)C.[177Lu+3] (centres unmarked) [^177Lu-I-1]

uptake ratio Tumor/Blood (1 h): 4.7
uptake ratio Tumor/Kidney (1 h): 17.2
uptake ratio Tumor/Liver (1 h): 17.9
uptake ratio Tumor/Lung (1 h): 9.0
uptake ratio Tumor/Blood (4 h): 60.5
uptake ratio Tumor/Kidney (4 h): 40.0
uptake ratio Tumor/Liver (4 h): 16.6
uptake ratio Tumor/Lung (4 h): 43.3
% ID/g (1 h) Blood (Blood, 1 h): 3.18 ± 0.24 % ID/g
% ID/g (4 h) Blood (Blood, 4 h): 0.22 ± 0.07 % ID/g
% ID/g (1 h) Femur (Femur, 1 h): 0.53 ± 0.04 % ID/g
% ID/g (4 h) Femur (Femur, 4 h): 0.13 ± 0.1 % ID/g
% ID/g (1 h) Heart (Heart, 1 h): 1.46 ± 0.24 % ID/g
% ID/g (4 h) Heart (Heart, 4 h): 0.16 ± 0.06 % ID/g
% ID/g (1 h) Intestine (Intestine, 1 h): 1.28 ± 0.11 % ID/g
% ID/g (4 h) Intestine (Intestine, 4 h): 0.42 ± 0.16 % ID/g
% ID/g (1 h) Kidney (Kidney, 1 h): 0.87 ± 0.05 % ID/g
% ID/g (4 h) Kidney (Kidney, 4 h): 0.33 ± 0.09 % ID/g
% ID/g (1 h) Liver (Liver, 1 h): 0.84 ± 0.43 % ID/g
% ID/g (4 h) Liver (Liver, 4 h): 0.79 ± 0.08 % ID/g
% ID/g (1 h) Lung (Lung, 1 h): 1.66 ± 0.93 % ID/g
% ID/g (4 h) Lung (Lung, 4 h): 0.3 ± 0.15 % ID/g
% ID/g (1 h) Muscle (Muscle, 1 h): 0.31 ± 0.05 % ID/g
% ID/g (4 h) Muscle (Muscle, 4 h): 0.06 ± 0.02 % ID/g
% ID/g (1 h) Pancreas (Pancreas, 1 h): 0.26 ± 0.05 % ID/g
% ID/g (4 h) Pancreas (Pancreas, 4 h): 0.06 ± 0.02 % ID/g
% ID/g (1 h) Spleen (Spleen, 1 h): 0.26 ± 0.05 % ID/g
% ID/g (4 h) Spleen (Spleen, 4 h): 0.08 ± 0.03 % ID/g
% ID/g (1 h) Stomach (Stomach, 1 h): 0.55 ± 0.13 % ID/g
% ID/g (4 h) Stomach (Stomach, 4 h): 0.4 ± 0.22 % ID/g
% ID/g (1 h) Tumor (Tumor, 1 h): 14.96 ± 6.57 % ID/g
% ID/g (4 h) Tumor (Tumor, 4 h): 13.06 ± 6.54 % ID/g
SMILES: COc1cccc(OC)c1-c1cc(C(=O)NC2(C(=O)O)C3CC4CC(C3)CC2C4)nn1-c1ccc(C(=O)N(CCCNC(=O)CN2CCN(CC(=O)[O-])CCN(CC(=O)[O-])CCN(CC(=O)[O-])CC2)CCCN(C)C)cc1C(C)C.[177Lu+3] (centres unmarked) [^177Lu-C-5, reference compound]

% ID/g (4 h) Blood (Blood, 4 h): 6.25 ± 1.53 % ID/g
% ID/g (24 h) Blood (Blood): 0.23 ± 0.12 % ID/g
% ID/g (4 h) Femur (Femur, 4 h): 0.89 ± 0.74 % ID/g
% ID/g (24 h) Femur (Femur): 0.4 ± 0.16 % ID/g
% ID/g (4 h) Heart (Heart, 4 h): 2.39 ± 0.51 % ID/g
% ID/g (24 h) Heart (Heart): 0.5 ± 0.12 % ID/g
% ID/g (4 h) Intestine (Intestine, 4 h): 3.51 ± 1.14 % ID/g
% ID/g (24 h) Intestine (Intestine): 1.00 ± 0.34 % ID/g
% ID/g (4 h) Kidney (Kidney, 4 h): 3.09 ± 1.79 % ID/g
% ID/g (24 h) Kidney (Kidney): 1.47 ± 1.07 % ID/g
% ID/g (4 h) Liver (Liver, 4 h): 7.4 ± 2.9 % ID/g
% ID/g (24 h) Liver (Liver): 1.86 ± 0.97 % ID/g
% ID/g (4 h) Lung (Lung, 4 h): 2.92 ± 2.09 % ID/g
% ID/g (24 h) Lung (Lung): 0.55 ± 0.34 % ID/g
% ID/g (4 h) Muscle (Muscle, 4 h): 0.54 ± 0.28 % ID/g
% ID/g (24 h) Muscle (Muscle): 0.34 ± 0.14 % ID/g
% ID/g (4 h) Pancreas (Pancreas, 4 h): 0.53 ± 0.09 % ID/g
% ID/g (24 h) Pancreas (Pancreas): 0.6 ± 0.2 % ID/g
% ID/g (4 h) Spleen (Spleen, 4 h): 0.71 ± 0.16 % ID/g
% ID/g (24 h) Spleen (Spleen): 1.22 ± 0.22 % ID/g
% ID/g (4 h) Stomach (Stomach, 4 h): 1.74 ± 1.36 % ID/g
% ID/g (24 h) Stomach (Stomach): 0.69 ± 0.46 % ID/g
% ID/g (4 h) Tumor (Tumor, 4 h): 16.7 ± 10.49 % ID/g
% ID/g (24 h) Tumor (Tumor): 26.12 ± 10.63 % ID/g
SMILES: COc1cccc(OC)c1-c1cc(C(=O)NC2(C(=O)O)C3CC4CC(C3)CC2C4)nn1-c1ccc(SCCCN(C)CCCN(C)C(=O)CN2CCN(CC(=O)[O-])CCN(CC(=O)[O-])CCN(CC(=O)[O-])CC2)cc1C(C)C.[177Lu+3] (centres unmarked) [^177Lu-I-8]

tumor AUC over 72 hours compared to ^177Lu—C2: significantly higher tumor AUC
% ID/g (4 h) Blood (Blood, 4 h): 9.23 ± 0.36 % ID/g
% ID/g (24 h) Blood (Blood): 0.28 ± 0.03 % ID/g
% ID/g (72 h) Blood (Blood): 0.07 ± 0.01 % ID/g
% ID/g (4 h) Femur (Femur, 4 h): 1.4 ± 0.79 % ID/g
% ID/g (24 h) Femur (Femur): 0.39 ± 0.1 % ID/g
% ID/g (72 h) Femur (Femur): 0.111 ± 0.09 % ID/g
% ID/g (4 h) Heart (Heart, 4 h): 3.78 ± 0.03 % ID/g
% ID/g (24 h) Heart (Heart): 0.4 ± 0.13 % ID/g
% ID/g (72 h) Heart (Heart): 0.18 ± 0.1 % ID/g
% ID/g (4 h) Intestine (Intestine, 4 h): 2.00 ± 0.18 % ID/g
% ID/g (24 h) Intestine (Intestine): 1.00 ± 0.18 % ID/g
% ID/g (72 h) Intestine (Intestine): 0.55 ± 0.11 % ID/g
% ID/g (4 h) Kidney (Kidney, 4 h): 2.03 ± 0.38 % ID/g
% ID/g (24 h) Kidney (Kidney): 2.39 ± 0.77 % ID/g
% ID/g (72 h) Kidney (Kidney): 1.69 ± 1.04 % ID/g
% ID/g (4 h) Liver (Liver, 4 h): 5.15 ± 1.65 % ID/g
% ID/g (24 h) Liver (Liver): 1.66 ± 0.55 % ID/g
% ID/g (72 h) Liver (Liver): 1.02 ± 0.44 % ID/g
% ID/g (4 h) Lung (Lung, 4 h): 1.77 ± 0.37 % ID/g
% ID/g (24 h) Lung (Lung): 0.39 ± 0.11 % ID/g
% ID/g (72 h) Lung (Lung): 0.17 ± 0.02 % ID/g
% ID/g (4 h) Muscle (Muscle, 4 h): 1.48 ± 1.16 % ID/g
% ID/g (24 h) Muscle (Muscle): 0.23 ± 0.14 % ID/g
% ID/g (72 h) Muscle (Muscle): 0.05 ± 0.03 % ID/g
% ID/g (4 h) Pancreas (Pancreas, 4 h): 0.54 ± 0.14 % ID/g
% ID/g (24 h) Pancreas (Pancreas): 0.32 ± 0.15 % ID/g
% ID/g (72 h) Pancreas (Pancreas): 0.08 ± 0.02 % ID/g
% ID/g (24 h) Spleen (Spleen): 1.07 ± 0.31 % ID/g
% ID/g (72 h) Spleen (Spleen): 0.19 ± 0.03 % ID/g
% ID/g (4 h) Stomach (Stomach, 4 h): 0.86 ± 0.1 % ID/g
% ID/g (24 h) Stomach (Stomach): 0.43 ± 0.27 % ID/g
% ID/g (72 h) Stomach (Stomach): 0.22 ± 0.1 % ID/g
% ID/g (4 h) Tumor (Tumor, 4 h): 23.11 ± 18.15 % ID/g
% ID/g (24 h) Tumor (Tumor): 25.61 ± 1.69 % ID/g
% ID/g (72 h) Tumor (Tumor): 15.44 ± 5.61 % ID/g
ratio of tumor AUC verse normal organ AUC: significantly improved
SMILES: COc1cccc(OC)c1-c1cc(C(=O)NC2(C(=O)O)C3CC4CC(C3)CC2C4)nn1-c1ccc(NCCCN(C)CCCNC(=O)CN2CCN(CC(=O)[O-])CCN(CC(=O)[O-])CCN(CC(=O)[O-])CC2)cc1C(C)C.[177Lu+3] (centres unmarked) [^177Lu-I-2]
